Source: patent US9464077B2, “Nitrogen-containing aromatic heterocyclic compound” (Astellas Pharma Inc., priority 2012, dated 2016)

Experiments:
[1] = system: FGFR3-TACC3_v3 (N-FLAG) fusion polypeptide; assay: In vitro kinase activity inhibition (HTRF KinEASE-TK); type: biochemical, human; details: 100 μM ATP
[2] = system: FGFR3-BAIAP2L1-expressing NIH3T3 cells; assay: Anchorage-independent cell growth inhibition, spheroid plate; type: cell-based; details: Mus musculus, NIH3T3, 96 h, 4 days, read-out: growth inhibition rate FGFR3-BAIAP2L1-expressing NIH3T3 Cells
Method: (§1) In a 96-well spheroid plate (Sumilon Celltight Spheroid 96U; Sumitomo Bakelite), FGFR3-BAIAP2L1-expressing NIH3T3 cells were seeded at 1×10^3 cells per well in D-MEM medium containing 10% fetal bovine serum. A well supplemented with only medium was also prepared for a positive control. Culturing was performed overnight in the presence of 5% CO2 at 37° C. followed by addition of test compounds (final concentrations: 100 nM, 10 nM, and 1 nM). As a negative control, DMSO used as a solvent for the compounds was added at the same concentration (0.1%) as in the case of addition of the compounds. Then, culturing was performed in the presence of 5% CO2 at 37° C. for 4 days, and a cell counting reagent (CellTiter-Glo™ Luminescent Cell Viability Assay; Promega) was added and the resulting mixture was stirred for 20 minutes followed by measurement with a luminometer.

[3] = system: UM-UC-14 (FGFR3_S249C-positive cells, bladder cancer); assay: Antitumor test on UM-UC-14 subcutaneous xenograft; type: in vivo, nude mice; details: oral, 1 mg/kg/day, once a day, tumor volume at Day 11 vs Day 1
Method: 3×10^6 UM-UC-14 cells per 0.1 mL (PBS+matrigel, 1:1) were inoculated subcutaneously into the right flank of nude mice (CAnN, Cg-Foxn1nu/CrlCrlj (nu/nu), male, 4- to 5-week-old), and when their tumor size reached about 250 mm^3, drug administration was started (Day 1). The drug was administered once a day and the tumor size was measured with a caliper and the body weight was also measured every two or three days. The antitumor effect was finally determined based on the tumor volume (mm^3; minor axis (mm)×minor axis (mm)×major axis (mm)/2) at Day 11 (n=3-5). To the control group, 0.5% MC (methyl cellulose) was administered. […] “% regression” indicates what percentage of regression could be achieved compared with the tumor volume at Day 1. Here, the tumor volume at Day 1 means tumor volume immediately before drug administration.

[4] = biological target: human recombinant FGFR1 (Homo sapiens, UniProt P11362); assay: FGFR1 enzyme assay (LabChip EZ Reader)
Method: (§3) The compound was diluted with a solution of dimethyl sulfoxide (DMSO) (10-fold common ratio, 4 portions) before dilution with a reaction buffer (100 mM HEPES (pH7.5), 0.003% Brij-35, 0.004% Tween 20, 0.5 mM DTT, and 10 mM MgCl2) so that the final DMSO concentration was 2%. To 4 μL of the compound solution in a 384-well plate, 2 μL each of FGFR1 enzyme (2 or 3 ng/μL), FGFR2 enzyme (2 ng/μL), or FGFR3 enzyme (6 ng/μL) which were diluted with the reaction buffer was added. […] After the reaction was stopped, the reaction mixture was measured with a LabChip EZ Reader. The IC50 values were calculated by non-linear regression based on the inhibition rates obtained.

[5] = system: FGFR3-TACC3_v1 (N-FLAG) fusion polypeptide; assay: In vitro kinase activity inhibition (HTRF KinEASE-TK); type: biochemical, human; details: 100 μM ATP
[6] = system: FGFR3-TACC3_v2 (N-FLAG) fusion polypeptide; assay: as above; type: biochemical, human; details: 100 μM ATP
[7] = biological target: human recombinant FGFR3 (Homo sapiens, UniProt P22607); assay: FGFR3 enzyme assay (LabChip EZ Reader)
Method: as §3

[8] = system: FGFR3-TACC3_v4-expressing NIH3T3 cells; assay: Anchorage-independent cell growth inhibition, spheroid plate; type: cell-based; details: Mus musculus, NIH3T3, 96 h, 4 days, read-out: growth inhibition rate v4
Source text: (§2) Measurement for anchorage-independent cell growth (colony method, etc.) is known to be a system for investigating the anticancer action (pharmacological effect) of compounds (Clinical Oncology, second edition, Cancer and Chemotherapy Publishers Inc.). As a method for measuring the non-adhesive growth of cells, there is the following method using a spheroid plate as referred to above in place of the colony method.
as §1, with “Bakelite), FGFR3-TACC3_v1-expressing NIH3T3 cells, FGFR3-TACC3_v2-expressing NIH3T3 cells, FGFR3-TACC3_v3-expressing NIH3T3 cells, and FGFR3-TACC3_v4-expressing” for “Bakelite), FGFR3-BAIAP2L1-expressing”, “were each” for “were”, “D-MEM media (Invitrogen)” for “D-MEM medium”, “serum. […]” for “serum.”

[9] = system: FGFR3-TACC3_v2-expressing NIH3T3 cells; assay: as above; type: cell-based; details: Mus musculus, NIH3T3, 96 h, 4 days, read-out: growth inhibition rate v2
Source text: as §2
as §1, with “Bakelite), FGFR3-TACC3_v1-expressing NIH3T3 cells, FGFR3-TACC3_v2-expressing NIH3T3 cells, FGFR3-TACC3_v3-expressing NIH3T3 cells, and FGFR3-TACC3_v4-expressing” for “Bakelite), FGFR3-BAIAP2L1-expressing”, “were each” for “were”, “D-MEM media (Invitrogen)” for “D-MEM medium”, “serum. […]” for “serum.”

[10] = system: FGFR3-TACC3_v1-expressing NIH3T3 cells; assay: as above; type: cell-based; details: Mus musculus, NIH3T3, 96 h, 4 days, read-out: growth inhibition rate v1
Source text: as §2
as §1, with “Bakelite), FGFR3-TACC3_v1-expressing NIH3T3 cells, FGFR3-TACC3_v2-expressing NIH3T3 cells, FGFR3-TACC3_v3-expressing NIH3T3 cells, and FGFR3-TACC3_v4-expressing” for “Bakelite), FGFR3-BAIAP2L1-expressing”, “were each” for “were”, “D-MEM media (Invitrogen)” for “D-MEM medium”, “serum. […]” for “serum.”

[11] = system: FGFR3-TACC3_v3-expressing NIH3T3 cells; assay: as above; type: cell-based; details: Mus musculus, NIH3T3, 96 h, 4 days, read-out: growth inhibition rate v3
Source text: as §2
as §1, with “Bakelite), FGFR3-TACC3_v1-expressing NIH3T3 cells, FGFR3-TACC3_v2-expressing NIH3T3 cells, FGFR3-TACC3_v3-expressing NIH3T3 cells, and FGFR3-TACC3_v4-expressing” for “Bakelite), FGFR3-BAIAP2L1-expressing”, “were each” for “were”, “D-MEM media (Invitrogen)” for “D-MEM medium”, “serum. […]” for “serum.”

[12] = system: FGFR3_S249C/NIH3T3 cells; assay: Growth assay of cells with forced expression of mutant FGFR3; type: cell-based; details: Mus musculus, NIH3T3, 120 h; 5 days after addition, CellTiter-Glo; read-out: IC50 (growth inhibition)
Method: FGFR3_S249C/NIH3T3 cells were added to a 96-well spheroid plate (U bottom) at a concentration of 3000 cells/well/90 μL, and the compound solution (10 μL) was added thereto on the next day (final DMSO concentration: 0.1%). The compound solution was prepared by serially diluting the compound with DMSO at a 3-fold common ratio (9 portions and DMSO only) from the maximum concentration of 10 mM and then diluted 100-fold with a culture medium (D-MEM, 10% FBS). 5 days after the addition of the compound, the growth inhibition caused by the compound was evaluated by Promega (G7573) CellTiter-Glo™ Luminescent Cell Viability Assay.

Sequence of human recombinant FGFR3 (P22607 23-806): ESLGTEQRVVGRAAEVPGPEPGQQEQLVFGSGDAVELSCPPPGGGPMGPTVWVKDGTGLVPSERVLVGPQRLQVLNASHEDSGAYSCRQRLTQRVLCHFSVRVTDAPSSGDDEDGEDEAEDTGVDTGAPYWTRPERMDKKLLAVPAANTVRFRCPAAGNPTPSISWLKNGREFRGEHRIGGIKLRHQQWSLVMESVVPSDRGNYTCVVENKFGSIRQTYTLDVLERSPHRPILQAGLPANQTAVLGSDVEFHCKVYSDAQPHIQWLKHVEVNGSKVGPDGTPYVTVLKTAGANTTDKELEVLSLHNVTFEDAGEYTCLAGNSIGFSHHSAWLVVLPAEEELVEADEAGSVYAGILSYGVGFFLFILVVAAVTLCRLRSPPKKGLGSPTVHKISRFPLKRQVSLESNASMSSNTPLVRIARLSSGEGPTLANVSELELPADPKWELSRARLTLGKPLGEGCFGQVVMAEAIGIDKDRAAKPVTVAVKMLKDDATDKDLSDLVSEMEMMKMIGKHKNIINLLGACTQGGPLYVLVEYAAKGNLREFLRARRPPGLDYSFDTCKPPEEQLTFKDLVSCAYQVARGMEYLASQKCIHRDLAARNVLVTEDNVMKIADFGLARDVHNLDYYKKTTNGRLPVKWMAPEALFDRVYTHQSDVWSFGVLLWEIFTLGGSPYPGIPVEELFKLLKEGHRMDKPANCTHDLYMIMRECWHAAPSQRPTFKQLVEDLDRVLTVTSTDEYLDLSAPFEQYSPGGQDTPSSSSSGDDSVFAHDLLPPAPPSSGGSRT
Sequence of human recombinant FGFR1 (P11362 22-822): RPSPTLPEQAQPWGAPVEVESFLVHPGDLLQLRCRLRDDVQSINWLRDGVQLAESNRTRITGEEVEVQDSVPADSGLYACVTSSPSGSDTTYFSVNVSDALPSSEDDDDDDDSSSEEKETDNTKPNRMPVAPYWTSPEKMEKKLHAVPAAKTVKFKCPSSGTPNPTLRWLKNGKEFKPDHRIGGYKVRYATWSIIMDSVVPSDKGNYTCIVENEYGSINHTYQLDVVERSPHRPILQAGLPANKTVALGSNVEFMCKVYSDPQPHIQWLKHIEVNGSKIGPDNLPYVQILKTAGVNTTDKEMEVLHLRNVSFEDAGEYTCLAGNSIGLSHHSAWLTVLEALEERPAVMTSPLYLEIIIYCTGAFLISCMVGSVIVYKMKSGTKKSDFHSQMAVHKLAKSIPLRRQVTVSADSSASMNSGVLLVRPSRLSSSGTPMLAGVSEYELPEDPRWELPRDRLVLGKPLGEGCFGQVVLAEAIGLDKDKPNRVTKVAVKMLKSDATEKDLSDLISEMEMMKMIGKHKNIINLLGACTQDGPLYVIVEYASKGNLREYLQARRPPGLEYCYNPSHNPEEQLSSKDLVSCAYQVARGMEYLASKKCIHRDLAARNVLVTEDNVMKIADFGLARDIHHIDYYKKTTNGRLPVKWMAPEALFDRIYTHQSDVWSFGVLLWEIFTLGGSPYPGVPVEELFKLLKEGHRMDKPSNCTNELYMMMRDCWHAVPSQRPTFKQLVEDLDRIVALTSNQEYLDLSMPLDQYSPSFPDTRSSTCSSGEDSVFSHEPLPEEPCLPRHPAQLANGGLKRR

For `COc1cc(OC)c(F)c(COc2cnc(Nc3ccc(N4CCC(NCCO)CC4)cc3)nc2)c1F` [Example 299], the “rate of inhibiting kinase activity v3” value ([1]; 1 nM) was 47%, the “rate of inhibiting kinase activity v3” value ([1]; 10 nM) was 88% and the “rate of inhibiting kinase activity v3” value ([1]; 100 nM) was 96%. For the same compound, the inhibition at 0.001 µM ([2]; 1 nM) was 15%, the inhibition at 0.01 µM ([2]; 10 nM) was 81% and the inhibition at 0.1 µM ([2]; 100 nM) was 91%. For the same compound, the “Antitumor Activity, % regression” value [3] was 15%, the IC50 [4] was < 1 nM and the “rate of inhibiting kinase activity v1” value ([5]; 1 nM) was 35%. The “rate of inhibiting kinase activity v1” value ([5]; 10 nM) was 84%, the “rate of inhibiting kinase activity v1” value ([5]; 100 nM) was 94% and the “rate of inhibiting kinase activity v2” value ([6]; 1 nM) was 20%. The “rate of inhibiting kinase activity v2” value ([6]; 10 nM) was 77%, the “rate of inhibiting kinase activity v2” value ([6]; 100 nM) was 95% and the IC50 [7] was 2 nM. The inhibition at 0.001 µM ([8]; 1 nM) was 16%, the inhibition at 0.01 µM ([8]; 10 nM) was 82% and the inhibition at 0.1 µM ([8]; 100 nM) was 90%. It also gave an inhibition at 0.001 µM ([9]; 1 nM) of 4%, an inhibition at 0.01 µM ([9]; 10 nM) of 63% and an inhibition at 0.1 µM ([9]; 100 nM) of 91%. The inhibition at 0.001 µM ([10]; 1 nM) was 9%, the inhibition at 0.01 µM ([10]; 10 nM) was 77% and the inhibition at 0.1 µM ([10]; 100 nM) was 92%. It also gave an inhibition at 0.001 µM ([11]; 1 nM) of 5%, an inhibition at 0.01 µM ([11]; 10 nM) of 51% and an inhibition at 0.1 µM ([11]; 100 nM) of 89%. The IC50 [12] was 10 nM.
